# According to patent US12421206B2, “Aryl-n-aryl derivatives for treating a RNA virus infection” (ABIVAX, priority 2018, dated 2025):
# Tested on: RSV A2
# Test: RSV inhibition (cytopathic effect inhibition) using Viral ToxGlo assay in HEp-2 cells
# Format: cell-based
# Conditions: human respiratory syncytial virus, RSV A2, MOI 0.5, HEp-2 cells, 72 h p.i.
# Procedure: Protocol for Screening Antiviral Compounds for RSV Inhibition and Cytotoxicity Using Viral ToxGlo Assay
# HEp-2 cells were maintained in Eagle's minimum essential medium (EMEM) with Earle's BSS adjusted to contain 2 mM L-glutamine, 10% fetal bovine serum, 100 U/ml penicillin and 100 μg/ml streptomycin. For the purposes of the screening assay they were grown to 90% confluency, trypsinized and recovered. The trypsin was neutralised with cell culture media and cells were centrifuged at 150×g for 5 minutes before discarding the supernatant and resuspending cell pellet in assay media (EMEM with Earle's BSS adjusted to contain 2 mM L-glutamine, 2% fetal bovine serum and 100 U/ml penicillin and 100 μg/ml streptomycin). The cells were seeded into white clear-bottomed cell culture plates at a density of 1.5×10^4 cells/well in 50 μl and 4×10^3 cells/well in 25 μl for 96 well plates and 384 well plates respectively. For the media/background control column assay media only was added. Cell plates were placed in a humid chamber and incubated overnight at 37° C./5% CO2. After overnight incubation cells were checked for confluency and healthy appearance.
# Test articles were made up at 10× test concentration in a maximum DMSO concentration of 10% (final assay concentration maximal 1% DMSO) and added to the cell plates in volumes of 10 μl for 96 well plates and 5 μl for 384 well plates. For cell control and virus control wells the test article solvent only was added. Virus or assay media for cytotoxicity test wells and media/cell control wells was added immediately after test articles at an MOI of 0.5, 40 or 20 μl for 96 and 384 well plates respectively. Virus suspension was prepared by thawing RSV A2 frozen stocks and diluting to the required concentration of plaque forming units in assay media on ice.
# Cell plates were further incubated inside a humid chamber for 72 h p.i at 37° C./5% CO2. After the incubation period cells were observed under the microscope to check for characteristic cytopathic effect in virus control wells and healthy cells in the cell control wells. After plates were adjusted to room temperature 20/40 μl Viral ToxGlo (Promega) was added to each well of the 384/96 well cell plates. Plates were incubated at room temperature, protected from light on a plate rocker for 20 minutes before measuring the luminescence on a spectrophotometer (Biotek Synergy HTX).
# RSV inhibition was calculated as percentage of cytopathic effect inhibition relative to the virus control and cytotoxicity as percentage of cell survival relative to cell control wells. This allowed EC50 values to be calculated for each test article where a virus inhibition or cytotoxic dose response was identified.
row,SMILES,EC50 [nM]
1,"CC(C)CCCOc1cccc(Nc2ccc(OCc3ccccn3)cc2C2CC2)c1 [Compound 106, 2-cyclopropyl-N-{3-[(4-methylpentyl)oxy]phenyl}-4-[(pyridin-2-yl)methoxy]aniline]",33
2,"CS(=O)(=O)c1cc(OCc2ccccc2)ccc1Nc1cccc(NC(=O)CCC2CCCCC2)c1 [Compound 107, N-(3-{[4-(benzyloxy)-2-methanesulfonylphenyl]amino}phenyl)-3-cyclohexylpropanamide]",36
3,"Cc1c(NC(=O)C2(C(N)=O)CC2)cccc1Nc1ccc(OCc2ccccn2)cc1C1CC1 [Compound 108, N′1-[3-({2-cyclopropyl-4-[(pyridin-2-yl)methoxy]phenyl}amino)-2-methylphenyl]cyclopropane-1,1-dicarboxamide]",41
4,"Cc1c(Nc2ccc(OCc3ccccn3)cc2C2CC2)cccc1OP(=O)(O)O [Compound 109, [3-({2-cyclopropyl-4-[(pyridin-2-yl)methoxy]phenyl}amino)-2-methylphenoxy]phosphonic acid]",48
5,"O=C(NCC1CCCCC1)c1ccccc1Nc1ccc(OCc2ccccc2)cc1C1CC1 [Compound 110, 2-{[4-(benzyloxy)-2-cyclopropylphenyl]amino}-N-(cyclohexylmethyl)benzamide]",59
6,"CN(c1cccc(C(=O)NCCC2CCCCC2)c1)c1ccc(OCc2ccccn2)cc1C1CC1 [Compound 111, N-(2-cyclohexylethyl)-3-({2-cyclopropyl-4-[(pyridin-2-yl)methoxy]phenyl}(methyl)amino)benzamide]",62
7,"CC(C)CCc1cn(-c2cccc(Nc3ccc(OCc4ccccn4)cc3C3CC3)c2)nn1 [Compound 112, 2-cyclopropyl-N-{3-[4-(3-methylbutyl)-1H-1,2,3-triazol-1-yl]phenyl}-4-[(pyridin-2-yl)methoxy]aniline]",67
8,"O=C(NCC1CCCC1)c1ccccc1Nc1ccc(OCc2ccccn2)cc1C1CC1 [Compound 113, N-(cyclopentylmethyl)-2-({2-cyclopropyl-4-[(pyridin-2-yl)methoxy]phenyl}amino)benzamide]",69
9,"c1ccc(COc2ccc(Nc3cccc(OCCCC4CCCCC4)c3)c(N3CCOCC3)c2)cc1 [Compound 114, 4-(benzyloxy)-N-[3-(3-cyclohexylpropoxy)phenyl]-2-(morpholin-4-yl)aniline]",71
10,"O=C(NCCC1CCCCC1)c1ccccc1Nc1ccc(OCc2ccccc2)cc1C1CC1 [Compound 115, 2-{[4-(benzyloxy)-2-cyclopropylphenyl]amino}-N-(2-cyclohexylethyl)benzamide]",83
11,"O=C(CCC1CCCCC1)Nc1cc(Nc2ccc(OCc3ccccc3)cc2C(F)(F)F)ccc1F [Compound 116, N-(5-{[4-(benzyloxy)-2-(trifluoromethyl)phenyl]amino}-2-fluorophenyl)-3-cyclohexylpropanamide]",93
12,"O=C(NCCC1CCCCC1)c1cc(Nc2ccc(OCc3ccccn3)cc2C2CC2)ccn1 [Compound 117, N-(2-cyclohexylethyl)-4-({2-cyclopropyl-4-[(pyridin-2-yl)methoxy]phenyl}amino)pyridine-2-carboxamide]",98
13,"O=C(NCCC(F)(F)F)c1ccccc1Nc1ccc(OCc2ccccn2)cc1C1CC1 [Compound 120, 2-({2-cyclopropyl-4-[(pyridin-2-yl)methoxy]phenyl}amino)-N-(3,3,3-trifluoropropyl)benzamide]",110
14,"O=S(=O)(CCCC1CCCCC1)c1ccccc1Nc1ccc(OCc2ccccc2)cc1C1CC1 [Compound 122, 4-(benzyloxy)-N-[2-(3-cyclohexylpropanesulfonyl)phenyl]-2-cyclopropylaniline]",116
15,"CC(C)CCNC(=O)c1ccccc1Nc1ccc(OCc2ccccn2)cc1C1CC1 [Compound 123, 2-({2-cyclopropyl-4-[(pyridin-2-yl)methoxy]phenyl}amino)-N-(3-methylbutyl)benzamide]",120
16,"O=S(=O)(NCCC1CCCCC1)c1cccc(Nc2ccc(OCc3ccccc3)cc2C(F)(F)F)c1 [Compound 124, 3-{[4-(benzyloxy)-2-(trifluoromethyl)phenyl]amino}-N-(2-cyclohexylethyl)benzene-1-sulfonamide]",126
17,"O=C(CCC1CCCCC1)Nc1cc(Nc2ccc(OCc3ccc(F)cc3)cc2C(F)(F)F)ccc1F [Compound 125, 3-cyclohexyl-N-[2-fluoro-5-({4-[(4-fluorophenyl)methoxy]-2-(trifluoromethyl)phenyl}amino)phenyl]propanamide]",130
18,"CC(C)CCc1nc(-c2cccc(Nc3ccc(OCc4ccccn4)cc3C3CC3)c2)no1 [Compound 127, 2-cyclopropyl-N-{3-[5-(3-methylbutyl)-1,2,4-oxadiazol-3-yl]phenyl}-4-[(pyridin-2-yl)methoxy]aniline]",148
19,"CC(C)NC(=O)c1c(C#N)cccc1Nc1ccc(OCc2ccccc2)cc1C1CC1 [Compound 128, 2-{[4-(benzyloxy)-2-cyclopropylphenyl]amino}-6-cyano-N-(propan-2-yl)benzamide]",156
20,"c1ccc(COc2ccc(Nc3cccc(-c4noc(CCC5CCCCC5)n4)c3)c(C3CC3)c2)nc1 [Compound 129, N-{3-[5-(2-cyclohexylethyl)-1,2,4-oxadiazol-3-yl]phenyl}-2-cyclopropyl-4-[(pyridin-2-yl)methoxy]aniline]",175
21,"c1ccc(COc2ccc(Nc3cccc(-c4nnc(CCC5CCCCC5)o4)c3)c(C3CC3)c2)nc1 [Compound 130, N-{3-[5-(2-cyclohexylethyl)-1,3,4-oxadiazol-2-yl]phenyl}-2-cyclopropyl-4-[(pyridin-2-yl)methoxy]aniline]",198
22,"c1ccc(COc2ccc(Nc3cccc(OCCCC4CCCCC4)c3)c(N3CCC3)c2)cc1 [Compound 131, 2-(azetidin-1-yl)-4-(benzyloxy)-N-[3-(3-cyclohexylpropoxy)phenyl]aniline]",204
23,"O=P(O)(O)Oc1cccc(Nc2ccc(OCc3ccccn3)cc2C2CC2)c1 [Compound 133, [3-({2-cyclopropyl-4-[(pyridin-2-yl)methoxy]phenyl}amino)phenoxy]phosphonic acid]",230
24,"CC(C)(C)OC(=O)N1CCN(C(=O)c2cccc(Nc3ccc(OCc4ccccn4)cc3C3CC3)c2)CC1 [Compound 134, tert-butyl 4-[3-({2-cyclopropyl-4-[(pyridin-2-yl)methoxy]phenyl}amino)benzoyl]piperazine-1-carboxylate]",281
25,"O=C(O)C(NCCC1CCCCC1)c1cccc(Nc2ccc(OCc3ccccc3)cc2C2CC2)c1 (stereo not shown) [Compound 135, 2-(3-{[4-(benzyloxy)-2-cyclopropylphenyl]amino}phenyl)-2-[(2-cyclohexylethyl)amino]aceticacid]",292
26,"N#CC1(NC(=O)c2ccccc2Nc2ccc(OCc3ccccn3)cc2C2CC2)CC1 [Compound 136, N-(1-cyanocyclopropyl)-2-({2-cyclopropyl-4-[(pyridin-2-yl)methoxy]phenyl}amino)benzamide]",295
27,"c1ccc(COc2ccc(Nc3cccc(OC4CCC4)c3)c(C3CC3)c2)nc1 [Compound 137, N-(3-cyclobutoxyphenyl)-2-cyclopropyl-4-[(pyridin-2-yl)methoxy]aniline]",300
28,"COC(=O)C(NCCC1CCCCC1)c1cccc(Nc2ccc(OCc3ccccc3)cc2C2CC2)c1 (stereo not shown) [Compound 138, methyl 2-(3-{[4-(benzyloxy)-2-cyclopropylphenyl]amino}phenyl)-2-[(2-cyclohexylethyl)amino]acetate]",312
